Source: PubChem BioAssay (NCI)
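Tested at 5 concentrations; 48 h exposure; 96-well plates; endpoints linearly interpolated, else capped at highest concentration. TGI marks complete inhibition of growth.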

Legend:
Test in all cases: NCI anticancer screen, dose series, 48 h
MOLT-4 leukemia = system: MOLT-4 leukemia
ACHN renal = system: ACHN renal
U251 CNS = system: U251 CNS
OVCAR-8 ovarian = system: OVCAR-8 ovarian
NCI-H522 lung = system: NCI-H522 lung
SNB-19 CNS = system: SNB-19 CNS
MDA-MB-435 = system: MDA-MB-435
IGROV1 ovarian = system: IGROV1 ovarian
SK-MEL-2 melanoma = system: SK-MEL-2 melanoma
SF-295 CNS = system: SF-295 CNS
SK-OV-3 ovarian = system: SK-OV-3 ovarian
NCI/ADR-RES ovarian = system: NCI/ADR-RES ovarian
KM12 colon = system: KM12 colon
MDA-MB-231 breast = system: MDA-MB-231 breast
RPMI-8226 leukemia = system: RPMI-8226 leukemia
MCF7 breast = system: MCF7 breast
NCI-H226 lung = system: NCI-H226 lung
SF-539 CNS = system: SF-539 CNS
HL-60(TB) leukemia = system: HL-60(TB) leukemia
OVCAR-4 ovarian = system: OVCAR-4 ovarian
M14 melanoma = system: M14 melanoma
CCRF-CEM leukemia = system: CCRF-CEM leukemia
BT-549 breast = system: BT-549 breast
SK-MEL-28 melanoma = system: SK-MEL-28 melanoma
SF-268 CNS = system: SF-268 CNS
DU-145 prostate = system: DU-145 prostate
SN12C renal = system: SN12C renal
CAKI-1 renal = system: CAKI-1 renal
COLO 205 colon = system: COLO 205 colon
HCC-2998 colon = system: HCC-2998 colon
EKVX NSCLC = system: EKVX NSCLC
MDA-N = system: MDA-N
HCT-15 colon = system: HCT-15 colon
OVCAR-5 ovarian = system: OVCAR-5 ovarian
UACC-257 melanoma = system: UACC-257 melanoma
HCT-116 colon = system: HCT-116 colon
HT29 colon = system: HT29 colon
SK-MEL-5 melanoma = system: SK-MEL-5 melanoma
PC-3 prostate = system: PC-3 prostate
SNB-75 CNS = system: SNB-75 CNS
SW-620 colon = system: SW-620 colon
OVCAR-3 ovarian = system: OVCAR-3 ovarian
A549 NSCLC = system: A549 NSCLC
TK-10 renal = system: TK-10 renal
NCI-H460 lung = system: NCI-H460 lung
UACC-62 melanoma = system: UACC-62 melanoma
LOX IMVI melanoma = system: LOX IMVI melanoma
T-47D breast = system: T-47D breast
HS 578T breast = system: HS 578T breast
K-562 leukemia = system: K-562 leukemia
A498 renal = system: A498 renal
NCI-H23 lung = system: NCI-H23 lung
786-0 renal = system: 786-0 renal
UO-31 renal = system: UO-31 renal
HOP-92 NSCLC = system: HOP-92 NSCLC
HOP-62 NSCLC = system: HOP-62 NSCLC
MALME-3M melanoma = system: MALME-3M melanoma

Measured: TGI

COc1ccc(NC(=O)C(=O)C(CC2C(=O)NC(=S)NC2=O)C(=O)c2ccc3ccccc3c2)c([N+](=O)[O-])c1 (configuration not stated)
not listed: HOP-62 NSCLC | MALME-3M melanoma
> 100 µM: all other assays above

NC(=S)SCCC(=O)O
> 100 µM: all assays above
